Tested on: ALOMY (Alopecurus myosuroides, Blackgrass)
Test: post-emergence greenhouse experiment, herbicidal action (scale 0 to 100)
Format: in vivo
Settings: test period 20 days
From the text: The culture containers used were plastic flowerpots containing loamy sand with approximately 3.0% of humus as the substrate. The seeds of the test plants were sown separately for each species. For pre-emergence treatment, the active ingredients, which had been suspended or emulsified in water, were applied directly after sowing by means of finely distributing nozzles. The containers were irrigated gently to promote germination and growth and subsequently covered with transparent plastic hoods until the plants had rooted. This cover caused uniform germination of the test plants, unless this had been impaired by the active ingredients. For post-emergence treatment, the test plants were first grown to a height of 3 to 32 cm, depending on the plant habit, and only then treated with the active ingredients which had been suspended or emulsified in water. For this purpose, the test plants were either sown directly and grown in the same containers, or they were first grown separately as seedlings and transplanted into the test containers a few days prior to treatment. Depending on the species, the plants were kept at 10-25° C. or 20-35° C., respectively. The test period extended over 20 days. During this time, the plants were tended, and their response to the individual treatments was evaluated. The evaluation was carried out by using a scale from 0 to 100. […]

**Q.** With `CS(=O)(=O)c1cc(C(F)(F)F)ccc1C(=O)c1cnoc1C1CC1` [Isoxaflutole, isoxaflutole] as the compound, how does the “Herbicidal action against ALOMY, Found” value (growth stage 11, Isoxaflutole 3.125 g/ha alone) read?
**A.** Its value is 0.

**Q.** What about the “Herbicidal action against ALOMY, Found” value (growth stage 11, Isoxaflutole 6.25 g/ha alone) of the same compound?
**A.** Its value is 0.
